Measured values published in PubChem BioAssay AID248 (DTP/NCI, 2004).
“And” between values parts separate entries of the source, which are not always exact repeats. Equal values may be shown once. Inconclusive results and toxic doses are left out. No stated cut-off is given here; in the data, active means T/C of 150% or more; inactive means T/C below 125%.

System: L1210 leukemia ip in BDF1 mice, survival T/C
Assay: NCI In Vivo Anticancer Drug Screen. Data for tumor model L1210 Leukemia (intraperitoneal) in B6D2F1 (BDF1) mice
Settings: endpoint: mean survival time, higher = longer survival
Method in brief: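 Tumor was transplanted into mice, which were then dosed with test compound or vehicle alone. Survival was recorded for each group, and the treated figure was expressed relative to the control figure.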

[1] = dose: 100.0 mg/kg/injection, schedule: Q04DX003 (ip), vehicle: saline
[2] = dose: 200.0 mg/kg/injection, schedule: Q04DX003 (ip), vehicle: saline
[3] = dose: 100.0 mg/kg/injection, schedule: Q04DX002 (ip), vehicle: saline with Tween-80
[4] = dose: 200.0 mg/kg/injection, schedule: Q04DX002 (ip), vehicle: saline with Tween-80
[5] = dose: 400.0 mg/kg/injection, schedule: Q04DX002 (ip), vehicle: saline with Tween-80
[6] = dose: 100.0 mg/kg/injection, schedule: Q04DX003 (ip), vehicle: Klucel (hydroxypropylcellulose) (HPC)
[7] = dose: 100.0 mg/kg/injection, schedule: Q01DX009 (ip), vehicle: Klucel (hydroxypropylcellulose) (HPC)
[8] = dose: 200.0 mg/kg/injection, schedule: Q01DX009 (ip), vehicle: Klucel (hydroxypropylcellulose) (HPC)
[9] = dose: 200.0 mg/kg/injection, schedule: Q04DX003 (ip), vehicle: Klucel (hydroxypropylcellulose) (HPC)
[10] = dose: 400.0 mg/kg/injection, schedule: Q04DX003 (ip), vehicle: Klucel (hydroxypropylcellulose) (HPC)
[11] = dose: 100.0 mg/kg/injection, schedule: Q01DX001 (ip), vehicle: carboxymethylcellulose (CMC)
[12] = dose: 200.0 mg/kg/injection, schedule: Q01DX001 (ip), vehicle: carboxymethylcellulose (CMC)
[13] = dose: 400.0 mg/kg/injection, schedule: Q01DX001 (ip), vehicle: carboxymethylcellulose (CMC)

Measured: T/C

O=C(Nc1cccc(C(F)(F)F)c1)C(O)C(O)C(O)C(O)CO (stereo not drawn)
inactive: [1] 91 % of control | [2] 94 % of control | dose: 400.0 mg/kg/injection, schedule: Q04DX003 (ip), vehicle: saline 91 % of control

c1ccc(N=NC(c2ccccc2)c2ccccc2)cc1
inactive: dose: 50.0 mg/kg/injection, schedule: Q04DX003 (ip), vehicle: saline 106 % of control | [1] 95 % of control | [2] 106 % of control

CN(C)C(=O)Nc1ccc(Cl)cc1Cl
inactive: [3] 98 % of control | [4] 110 % of control | [5] 121 % of control

CC1(C)N=C(N)N=C(N)N1c1ccc(Cl)cc1Cl
inactive: dose: 20.0 mg/kg/injection, schedule: Q04DX003 (ip), vehicle: Klucel (hydroxypropylcellulose) (HPC) 104 % of control | dose: 25.0 mg/kg/injection, schedule: Q01DX001 (ip), vehicle: saline with Tween-80 97 % of control | dose: 25.0 mg/kg/injection, schedule: Q01DX009 (ip), vehicle: Klucel (hydroxypropylcellulose) (HPC) 105 % of control | dose: 40.0 mg/kg/injection, schedule: Q04DX003 (ip), vehicle: Klucel (hydroxypropylcellulose) (HPC) 100 % of control | dose: 50.0 mg/kg/injection, schedule: Q01DX001 (ip), vehicle: saline with Tween-80 93 % of control | dose: 50.0 mg/kg/injection, schedule: Q01DX009 (ip), vehicle: Klucel (hydroxypropylcellulose) (HPC) 94 % of control | dose: 80.0 mg/kg/injection, schedule: Q04DX003 (ip), vehicle: Klucel (hydroxypropylcellulose) (HPC) 94 % of control | dose: 100.0 mg/kg/injection, schedule: Q01DX001 (ip), vehicle: saline with Tween-80 97 % of control | dose: 100.0 mg/kg/injection, schedule: Q01DX001 (ip), vehicle: saline 100 % of control | [6] 94 % of control

COc1ccc(NC(=S)Nc2ccccc2)cc1
inactive: [3] 101 % of control | [4] 108 % of control | [5] 108 % of control

Cc1ccc(S(=O)(=O)Oc2ccccc2)cc1
inactive: [7] 96 % of control | [6] 94 % of control | [8] 100 % of control | [9] 94 % of control | dose: 400.0 mg/kg/injection, schedule: Q01DX009 (ip), vehicle: Klucel (hydroxypropylcellulose) (HPC) 97 % of control | [10] 92 % of control

O=C(Nc1ccc(C2=NCCN2)cc1)c1ccc(N=Nc2ccc(C(=O)Nc3ccc(C4=NCCN4)cc3)cc2)cc1
inactive: dose: 125.0 mg/kg/injection, schedule: Q01DX Z (ip), vehicle: water 106 % of control | dose: 250.0 mg/kg/injection, schedule: Q01DX Z (ip), vehicle: water 107 % of control

CCCCCCCCCCCCCCCCCCOC(=O)c1ccco1
inactive: dose: 100.0 mg/kg/injection, schedule: Q01DX001 (ip), vehicle: other 96 % of control | dose: 200.0 mg/kg/injection, schedule: Q01DX001 (ip), vehicle: other 105 % of control | dose: 400.0 mg/kg/injection, schedule: Q01DX001 (ip), vehicle: other 92 % of control

CCOC(=O)C(C)(C)CC(=O)COC
inactive: dose: 100.0 mg/kg/injection, schedule: Q01DX001 (ip), vehicle: acetone 98 % of control | dose: 100.0 mg/kg/injection, schedule: Q01DX009 (ip), vehicle: acetone 95 % of control | dose: 200.0 mg/kg/injection, schedule: Q01DX001 (ip), vehicle: acetone 100 % of control | dose: 200.0 mg/kg/injection, schedule: Q01DX009 (ip), vehicle: acetone 90 % of control | dose: 400.0 mg/kg/injection, schedule: Q01DX001 (ip), vehicle: acetone 94 % of control | dose: 400.0 mg/kg/injection, schedule: Q01DX009 (ip), vehicle: acetone 105 % of control

CCCCCCCCCCCCOCN1C(=O)N(COCCCCCCCCCCCC)C(=O)C(CC)(c2ccccc2)C1=O
inactive: dose: 100.0 mg/kg/injection, schedule: Q01DX009 (ip), vehicle: saline with Tween-80 97 % of control | dose: 200.0 mg/kg/injection, schedule: Q01DX009 (ip), vehicle: saline with Tween-80 94 % of control | dose: 400.0 mg/kg/injection, schedule: Q01DX009 (ip), vehicle: saline with Tween-80 94 % of control

CCn1cnc2c(SC3CCCC3)ncnc21
inactive: dose: 15.0 mg/kg/injection, schedule: Q01DX015 (ip), vehicle: carboxymethylcellulose (CMC) 96 % of control | dose: 30.0 mg/kg/injection, schedule: Q01DX015 (ip), vehicle: carboxymethylcellulose (CMC) 104 % of control | dose: 62.0 mg/kg/injection, schedule: Q01DX015 (ip), vehicle: carboxymethylcellulose (CMC) 110 % of control | dose: 62.0 mg/kg/injection, schedule: Q01DX Z (ip), vehicle: carboxymethylcellulose (CMC) 95 % of control | dose: 125.0 mg/kg/injection, schedule: Q01DX015 (ip), vehicle: carboxymethylcellulose (CMC) 124 % of control | dose: 125.0 mg/kg/injection, schedule: Q01DX Z (ip), vehicle: carboxymethylcellulose (CMC) 113 % of control | dose: 500.0 mg/kg/injection, schedule: Q01DX Z (ip), vehicle: carboxymethylcellulose (CMC) 101 % of control

O=C1CCN(CCN2CCC(=O)NC2=S)C(=S)N1
inactive: dose: 100.0 mg/kg/injection, schedule: Q04DX002 (ip), vehicle: gum acacia 94 % of control | dose: 200.0 mg/kg/injection, schedule: Q04DX002 (ip), vehicle: gum acacia 91 % of control | dose: 400.0 mg/kg/injection, schedule: Q04DX002 (ip), vehicle: gum acacia 97 % of control

N#CCC(=O)NCc1ccncc1
inactive: [11] 95 % of control | dose: 100.0 mg/kg/injection, schedule: Q04DX003 (ip), vehicle: carboxymethylcellulose (CMC) 95 % of control | [12] 106 % of control | dose: 200.0 mg/kg/injection, schedule: Q04DX003 (ip), vehicle: carboxymethylcellulose (CMC) 96 % of control | [13] 108 % of control | dose: 400.0 mg/kg/injection, schedule: Q04DX003 (ip), vehicle: carboxymethylcellulose (CMC) 91 % of control

C=COC(=O)CCCCCCCCCCCCCCCCC
inactive: [6] 101 % of control | [9] 100 % of control | [10] 103 % of control

COC(=O)c1cccc(-c2cccc(C(=O)OC)c2)c1
inactive: [11] 96 % of control | [12] 96 % of control | [13] 100 % of control

CCCCCCCCCCCCCCCCCCNC(=S)N/N=C/c1ccccc1[N+](=O)[O-]
inactive: dose: 111.0 mg/kg/injection, schedule: Q01DX Z (ip), vehicle: methylcellulose (MC) 90 % of control | dose: 166.0 mg/kg/injection, schedule: Q01DX Z (ip), vehicle: methylcellulose (MC) 86 % of control

CCCCCCCCCCCCC(=O)N(CC)CC
inactive: dose: 100.0 mg/kg/injection, schedule: Q04DX002 (ip), vehicle: Klucel (hydroxypropylcellulose) (HPC) 87 % of control | dose: 200.0 mg/kg/injection, schedule: Q04DX002 (ip), vehicle: Klucel (hydroxypropylcellulose) (HPC) 94 % of control | dose: 400.0 mg/kg/injection, schedule: Q04DX002 (ip), vehicle: Klucel (hydroxypropylcellulose) (HPC) 94 % of control

CC1=CC(c2ccc3c(c2)OCO3)c2c(c3ccccc3oc2=O)O1 (stereo not drawn)
inactive: dose: 6.25 mg/kg/injection, schedule: Q01DX009 (ip), vehicle: water 98 % of control | dose: 12.5 mg/kg/injection, schedule: Q01DX009 (ip), vehicle: water 93 % of control | dose: 25.0 mg/kg/injection, schedule: Q01DX009 (ip), vehicle: water 100 % of control and 90 % of control | dose: 50.0 mg/kg/injection, schedule: Q01DX009 (ip), vehicle: water 86 % of control

CCCCCCCCCCS(=O)(=O)CCS(=O)(=O)CCCCCCCCCC
inactive: [6] 97 % of control | [9] 95 % of control | [10] 97 % of control

O=C(Cc1ccccc1)c1ccc(O)cc1
inactive: [6] 102 % of control | [9] 102 % of control | [10] 88 % of control

NC(N)=N/N=C/c1cccc(F)c1
inactive: dose: 15.0 mg/kg/injection, schedule: Q01DX Z (ip), vehicle: saline 111 % of control | dose: 15.0 mg/kg/injection, schedule: Q01DX Z (oral), vehicle: saline 87 % of control | dose: 30.0 mg/kg/injection, schedule: Q01DX Z (ip), vehicle: saline 90 % of control | dose: 30.0 mg/kg/injection, schedule: Q01DX Z (oral), vehicle: saline 90 % of control

Cc1cc(C(C)C)cc(C(C)C)c1
inactive: [7] 96 % of control | [6] 94 % of control | [8] 95 % of control | [9] 102 % of control | [10] 94 % of control
